In this assay the target is DDR1 kinase (Homo sapiens, UniProt Q08345). Kind of assay: Evaluation of DDR1 kinase inhibition (LANCE Ultra TR-FRET kinase assay). It is filed as biochemical. Set-up: purchased Carna Biosciences 08-113. As to conditions: DDR1 protein 0.5 nM, LANCE Ultra ULight-poly GAT substrate, 2 hours at room temperature, duplicate; read-out: DDR-1 IC50. A general note: In TR-FRET formats the signal depends on donor and acceptor labels being close together.

Structures can show the parent of a compound that is named as a salt.

Chain of DDR1 kinase (Q08345 19-876 isoform Q08345-2 limits assumed): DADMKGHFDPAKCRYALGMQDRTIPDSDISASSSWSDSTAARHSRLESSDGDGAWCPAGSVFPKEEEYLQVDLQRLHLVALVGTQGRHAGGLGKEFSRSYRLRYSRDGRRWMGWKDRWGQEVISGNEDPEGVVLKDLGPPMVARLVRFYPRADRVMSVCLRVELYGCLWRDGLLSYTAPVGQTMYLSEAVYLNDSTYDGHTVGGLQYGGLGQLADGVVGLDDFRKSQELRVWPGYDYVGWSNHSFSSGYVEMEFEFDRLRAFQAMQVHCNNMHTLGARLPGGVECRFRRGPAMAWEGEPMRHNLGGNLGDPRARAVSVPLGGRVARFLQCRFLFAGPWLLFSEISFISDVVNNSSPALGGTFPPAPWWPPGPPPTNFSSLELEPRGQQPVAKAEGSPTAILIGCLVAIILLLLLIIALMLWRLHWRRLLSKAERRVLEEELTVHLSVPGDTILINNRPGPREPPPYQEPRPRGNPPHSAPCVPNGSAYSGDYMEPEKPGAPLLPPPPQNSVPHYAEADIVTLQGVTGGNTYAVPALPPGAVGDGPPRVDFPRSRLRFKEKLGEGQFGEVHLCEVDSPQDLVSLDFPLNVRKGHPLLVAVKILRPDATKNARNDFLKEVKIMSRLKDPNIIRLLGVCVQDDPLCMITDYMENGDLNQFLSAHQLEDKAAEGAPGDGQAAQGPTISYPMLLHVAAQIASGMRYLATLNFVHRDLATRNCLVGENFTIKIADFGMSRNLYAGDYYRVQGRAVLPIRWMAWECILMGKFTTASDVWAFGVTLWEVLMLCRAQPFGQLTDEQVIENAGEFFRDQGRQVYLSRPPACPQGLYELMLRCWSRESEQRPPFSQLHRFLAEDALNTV

For orientation: IC50 means the point on the concentration scale where inhibition reaches its midpoint. Consider `Nc1cc(C(=O)N2CC(c3nn(Cc4nc(-c5ccncc5F)no4)c4cncc(F)c34)C2)ccn1` [Compound E-170], for which the IC50 is 220 nM.

`CO[C@@H]1CCN(C(=O)Cn2nc(C3CN(C(=O)c4cc(N)ncc4F)C3)c3ccccc32)C1` [Compound E-231, 2-{3-[1-(2-amino-5-fluoropyridine-4-carbonyl)azetidin-3-yl]-1H-indazol-1-yl}-1-1(3R)-3-methoxypyrrolidin-1-yllethan-1-one]: the IC50 stood at 30 nM.

In the case of `C[C@@H]1CCC[C@H](C)N1C(=O)Cn1nc(C2CN(C(=O)c3cc(N)ncc3F)C2)c2ccccc21` [Compound E-266, 2·{3-[1-(2-amino-5-fluoropyridine-4-carbonyl)azetidin-3-yl]-1H-indazol-1-yl}-1-[(2R,68)-2,6-dimethylpiperidin-1-yl]ethan-1-one], the IC50 was 4.5 nM.

For `Nc1nccc(C(=O)N2CC(c3nn(CC(=O)N4CCO[C@@H](C(F)(F)F)C4)c4ccccc34)C2)n1` [Compound E-215, 2-{3-[1-(2-aminopyrimidine-4-carbonyl)azetidin-3-yl]-1H-indazol-1-yl}-1-[(2R)-2-(trifluoromethyl)morpholin-4-yl]ethan-1-one], the IC50 came out at 56 nM.

With `Nc1cc(C(=O)N2CC(c3nn(CC(=O)N4CCC5CC54)c4ccccc34)C2)ccn1` (stereo not drawn) [Compound E-223, 2-{3-[1-(2-aminopyridine-4-carbonyl)azetidin-3-yl]-1H-indazol-1-yl}-1-{2-azabicyclo[3.1.0)hexan-2-yl}ethan-1-one], the IC50 came to 82 nM.

Take `Nc1nccc(C(=O)N2CC(c3nn(CC(=O)N4CCC[C@H]4C(F)(F)F)c4ccc(Cl)cc34)C2)n1` [Compound E-290, 2-{3-[1-(2-aminopyrimidine-4-carbonyl)azetidin-3-yl]-5-chloro-1H-indazol-1-yl}-1-[(28)-2-(trifluoromethyl)pyrrolidin-1-yl]ethan-1-one]: the IC50 was determined as 1.6 nM.

For the compound `CC1(C)COCCN1C(=O)Cn1nc(C2CN(C(=O)c3cc(N)ncc3F)C2)c2ccccc21` [Compound E-187, 2-{3-[1-(2-amino-5-fluoropyridine-4-carbonyl)azetidin-3-yl]-1H-indazol-1-yl}-1-(3,3-dimethylmorpholin-4-yl)ethan-1-one], the IC50 was 0.6 nM.

For `Cc1nc(N)sc1C(=O)N1CCC(c2nn(CC(=O)N3CCC[C@H]3C(F)(F)F)c3cccc(F)c23)CC1` [Compound E-119, 2-{3-[1-(2-amino-4-methyl-1,3-thiazole-5-carbonyl)piperidin-4-yl]-4-fluoro-1H-indazol-1-yl}·1-[(2S)-2-(trifluoromethyl)pyrrolidin-1-yl]ethan-1-one], the IC50 came to 4.4 nM.

For the compound `Nc1cc(C(=O)N2CC(c3nn(CC(=O)NCCOC(F)(F)F)c4ccccc34)C2)ccn1` [Compound E-227, 2-{3-[1-(2-aminopyridine-4-carbonyl)azetidin-3-yl)-1H-indazol-1-yl}-N-[2-(trifluoromethoxy)ethyl]acetamide], the concentration for half-maximal inhibition (IC50) was 60 nM.

As to `CN(CC(F)(F)F)C(=O)Cn1nc(C2CN(C(=O)c3ccnc(N)n3)C2)c2cc(F)c(F)cc21` [Compound E-282, 2-{3-[1-(2-aminopyrimidine-4-carbonyl)azetidin-3-yl]-5,6-difluoro-1H-indazol-1-yl}-N-methyl-N-(2,2,2-trifluoroethyl)acetamide], the IC50 stood at 52 nM.

Consider `Nc1cc(C(=O)N2CC(c3nn(CC(=O)NC4CCOCC4)c4ccccc34)C2)ccn1` [Compound E-233, 2-{3-[1-(2-aminopyridine-4-carbonyl)azetidin-3-yl]-1H-indazol-1-yl}-N-(oxan-4-yl)acetamide], for which the IC50 was determined as 500 nM.

With `Nc1cc(C(=O)N2CC(F)(c3nn(CC(=O)N4CCC[C@H]4C(F)(F)F)c4ccccc34)C2)c(F)cn1` [Compound E-285, 2-(3-[1-(2-amino-5-fluoropyridine-4-carbonyl)-3-fluoroazetidin-3-yl]-1H-indazol-1-yl}-1-[(2S)-2-(trifluoromethyl)pyrrolidin-1-yl]ethan-1-one], the IC50 turned out to be 1.3 nM.

As to `CC(C)(C)OC(=O)Cn1nc(C2CN(C(=O)c3cc(N)ncc3F)C2)c2ccccc21` [Compound E-220, tert-butyl 2-{3-[1-(2-amino-5-fluoropyridine-4-carbony)azetidin-3-yl]-1H-indazol-1-yl}acetate], the IC50 is 3.6 nM.

On to `Nc1cc(C(=O)N2CC(c3nn(CC(=O)N4CCC[C@@H]4C(F)(F)F)c4ccccc34)C2)c(F)cn1` [Compound E-60, 2-{3-[1-(2-amino-5-fluoropyridine-4-carbonyl)azetidin-3-yl]-1H-indazol-1-yl}-1-[(2R)-2-(trifluoromethyl)pyrrolidin-1-yl]ethan-1-one], for which the IC50 turned out to be 6.5 nM.

For the compound `CC(C)N(C(=O)Cn1nc(C2CN(C(=O)c3cc(N)ncc3F)C2)c2ccccc21)C(C)C` [Compound E-267, 2-{3-[1-(2-amino-5-fluoropyridine-4-carbonyl)azetidin-3-yl]-1H-indazol-1-yl}-N,N-bis(propan-2-yl)acetamide], the half-inhibitory concentration (IC50) came to 6.2 nM.

`CC[C@@H]1CCCN1C(=O)Cn1nc(C2CN(C(=O)c3ccnc(N)c3)C2)c2ccccc21` [Compound E-222, 2-{3-[1-(2-aminopyridine-4-carbonyl)azetidin-3-yl)-1H-indazol-1-yl}-1-[(2R)-2-ethylpyrrolidin-1-yl]ethan-1-one]: the IC50 worked out at 2.1 nM.

For `Nc1cc(C(=O)N2CC(c3nn(Cc4cn(CC(F)(F)F)nn4)c4cccc(F)c34)C2)ccn1` [Compound E-52, 4-[3-(1-{[1-(2,2,2-trifluoroethyl)-1H-1,2,3-triazol-4-yl]methyl]-4-fluoro-1H-indazol-3-yl)azetidine-1-carbonyl]pyridin-2-amine hydrochloride], the IC50 is 43 nM.

For the compound `Nc1cc(C(=O)N2CC(c3nn(Cc4noc(C5(C(F)(F)F)CCC5)n4)c4cccc(F)c34)C2)ccn1` [Compound E-146, 4-{3-[4-fluoro-1-({5-[1-(trifluoromethyl)cyclobutyl]-1,2,4-oxadiazol-3-yl}methyl)-1H-indazol-3-yl]azetidine-1-carbonyl}pyridin-2-amine hydrochloride], the IC50 stood at 0.4 nM.

With `Nc1cc(C(=O)N2CC(c3nn(Cc4noc(C5(C(F)(F)F)CC5)n4)c4cncc(F)c34)C2)ccn1` [Compound E-14, 4-{3-[4-fluoro-1-({5-[1-(trifluoromethyl)cyclopropyl]-1,2,4-oxadiazol-3-yl)methyl)-1H-pyrazolo[3,4-c]pyridin-3-yl]azetidine-1-carbonyl}pyridin-2-amine], the IC50 is 5.1 nM.

Consider `CN(CC(F)(F)F)C(=O)Cn1nc(C2CN(C(=O)c3nc(N)ncc3F)C2)c2cc(F)ccc21` [Compound E-278, 2-{3-[1-(2-amino-5-fluoropyrimidine-4-carbonyl)azetidin-3-yl]-5-fluoro-1H-indazol-1-yl}-N-methyl-N-(2,2,2-trifluoroethyl)acetamide], for which the 50% inhibitory concentration (IC50) is 6.9 nM.

On to `COc1ccc2c(c1)c(C1CN(C(=O)c3cc(N)ncc3F)C1)nn2CC(=O)N1CCC[C@H]1C(F)(F)F` [Compound E-291, 2-(3-(1-(2-amino-5-fluoropyridine-4-carbonyl)azetidin-3-yl]-5-methoxy-1H-indazol-1-yl}·1-[(2S)-2-(trifluoromethyl)pyrrolidin-1-yl]ethan-1-one], for which the IC50 amounted to 2.6 nM.

As for `Nc1cc(C(=O)N2CC(c3nn(CC(=O)N4CCC[C@H]4COC(F)(F)F)c4cncc(F)c34)C2)c(F)cn1` [Compound E-58, 2-{3-[1-(2-amino-5-fluoropyridine-4-carbonyl)azetidin-3-yl]-4-fluoro-1H-pyrazolo(3,4-c]pyridin-1-yl}-1-[(2S)-2-[(trifluoromethoxy)methyl]pyrrolidin-1-yl]ethan-1-one di-p-toluenesulfonate], the IC50 came to 4.4 nM.

In the case of `Nc1cc(C(=O)N2CC(c3nn(CC(=O)N4CCC[C@H]4COC(F)(F)F)c4cc(F)cc(F)c34)C2)ccn1` [Compound E-56, 2-{3-[1-(2-aminopyridine-4-carbonyl)azetidin-3-yl]-4,6-difluoro-1H-indazol-1-yl}-1-[(2S)-2-[(trifluoromethoxy)methyl]pyrrolidin-1-yl]ethan-1-one], the IC50 amounted to 0.8 nM.

In the case of `Cc1ccc2c(c1)c(C1CN(C(=O)c3ccnc(N)n3)C1)nn2CC(=O)N1CCC[C@H]1C(F)(F)F` [Compound E-292, 2-{3-[1-(2-aminopyrimidine-4-carbonyl)azetidin-3-yl]-5-methyl-1H-indazol-1-yl]-1-[(2S)-2-(trifluoromethyl)pyrrolidin-1-yl]ethan-1-one], the IC50 was 2.3 nM.

For the compound `Nc1nccc(C(=O)N2CC(c3nn(CC(=O)N4CCO[C@@H](C(F)(F)F)C4)c4cc(F)cc(F)c34)C2)c1F` [Compound E-184, 2-{3-[1-(2-amino-3-fluoropyridine-4-carbonyl)azetidin-3-yl]-4,6-difluoro-1H-indazol-1-yl}-1-[(2R)-2-(trifluoromethyl)morpholin-4-yl]ethan-1-one p-toluenesulfonate], the IC50 was 3 nM.

`Nc1cc(C(=O)N2CC(c3nn(Cc4cn(CC5COC5)nn4)c4cccc(F)c34)C2)ccn1` [Compound E-38]: the IC50 is 190 nM.

Turning to `Nc1cc(C(=O)N2CC(c3nn(CC(=O)N4CCC[C@H]4C(F)(F)F)c4c3CC(F)(F)CC4)C2)c(F)cn1` [Compound E-25], the IC50 turned out to be 9 nM.

For the compound `Nc1cc(C(=O)N2CCC(c3nn(Cc4ccc(C(F)(F)F)cn4)c4cccc(F)c34)CC2)ccn1` [Compound E-9, 4-[4-(4-fluoro-1-{[5-(trifluoromethy)pyridin-2-yl]methyl}-1H-indazol-3-yl)piperidine-1-carbonyl]pyridin-2-amine], the IC50 came to 14 nM.

`Nc1cc(C(=O)N2CC(c3nn(CC(=O)N4CCC[C@H]4C(F)(F)F)c4ccccc34)C2)c(Cl)cn1` [Compound E-210, 2-{3-[1-(2-amino-5-chloropyridine-4-carbonyl)azetidin-3-yl]-1H-indazol-1-yl]-1-[(2S)-2-(trifluoromethyl)pyrrolidin-1-yl]ethan-1-one]: the IC50 was found to be 3.5 nM.

For `Nc1cc(C(=O)N2CC(c3nn(Cc4noc(C5CCOCC5)n4)c4cccc(F)c34)C2)ccn1` [Compound E-137], the IC50 is 34 nM.

Values taken from patent publication EP4624465A1, “COMPOUND SERVING AS DDR1 KINASE INHIBITOR, AND MEDICINE” (Nippon Shinyaku Co., Ltd., priority 2022, dated 2024).
